Assay [1] in a line: Inhibition of Vibrio cholerae alpha carbonic anhydrase preincubated for 15 mins by stopped flow CO2 hydration assay.
A short description of assay [2]: Inhibition of Vibrio cholerae beta carbonic anhydrase preincubated for 15 mins by stopped flow CO2 hydration assay.

Drawing on ChEMBL document CHEMBL4038280, “Synthesis and human/bacterial carbonic anhydrase inhibition with a series of sulfonamides incorporating phthalimido moieties” (Bioorg Med Chem, 2017), this text covers Ki for ten compounds.

The term Ki denotes the equilibrium dissociation constant of an inhibitor or competing ligand from its target. Take `COc1cc(NC(=O)c2ccc3c(c2)C(=O)N(c2ccc(S(N)(=O)=O)cc2)C3=O)c(C(=O)O)cc1OC`: the results for the Ki in assay [1] and in assay [2] were 2.84 µM and 7.97 µM, respectively.

As for `Cc1ccc(NC(=O)c2ccc3c(c2)C(=O)N(c2ccc(S(N)(=O)=O)cc2)C3=O)c(C(=O)O)c1`, the Ki came out at 1.68 µM in assay [1] and 5.42 µM in assay [2].

With `COc1cc(NC(=O)c2ccc3c(c2)C(=O)N(CCc2ccc(S(N)(=O)=O)cc2)C3=O)c(C(=O)O)cc1OC`, the Ki stood at 3.19 µM in assay [1] and 8.58 µM in assay [2].

As for `Cc1ccc(NC(=O)c2ccc3c(c2)C(=O)N(CCc2ccc(S(N)(=O)=O)cc2)C3=O)c(C(=O)O)c1`, the figures for the Ki in assay [1] and in assay [2] were 1.96 µM and 9.26 µM, respectively.

For `Cc1ccc(NC(=O)c2ccc3c(c2)C(=O)N(Cc2ccc(S(N)(=O)=O)cc2)C3=O)c(C(=O)O)c1`, the Ki was found to be 2.59 µM in assay [1] and 8.2 µM in assay [2].

With `COc1cc(NC(=O)c2ccc3c(c2)C(=O)N(Cc2ccc(S(N)(=O)=O)cc2)C3=O)c(C(=O)O)cc1OC`, the results for the Ki in assay [1] and in assay [2] were 2.93 µM and 9.26 µM, respectively.

In the case of `NS(=O)(=O)c1ccc(N2C(=O)c3ccc(C(=O)Nc4ccc(I)cc4C(=O)O)cc3C2=O)cc1`, the Ki in assay [1] was 0.281 µM; in assay [2], 5.4 µM.

As to `NS(=O)(=O)c1ccc(CCN2C(=O)c3ccc(C(=O)Nc4ccc(I)cc4C(=O)O)cc3C2=O)cc1`, the Ki in assay [1] was 2.58 µM; in assay [2], 6.75 µM.

Take `NS(=O)(=O)c1ccc(CN2C(=O)c3ccc(C(=O)Nc4ccc(I)cc4C(=O)O)cc3C2=O)cc1`: the Ki in assay [1] is 1.33 µM; in assay [2], 6.78 µM.

Turning to `CC(=O)Nc1nnc(S(N)(=O)=O)s1` [ACETAZOLAMIDE], the Ki in assay [1] was […]; in assay [2], […].
